System: liver fibrosis gene panel (770 genes)
Test: Nanostring nCounter Fibrosis panel gene expression in liver of DEN-injected mice
Format: in vivo, mouse
Method: Nanostring Analysis. RNA was extracted from paired liver and tumor tissue from vehicle, Compound I-1 (100 mg/kg) and Compound I-32 (100 mg/kg) treated mice using an RNeasy kit (Qiagen, Calif., USA) as per manufacturer's protocol. All RNA samples passed the BioAnalyzer quality control test. The expression of target genes in liver and tumor were analyzed using the nCounter Fibrosis and Cancer Panel (NanoString Technologies, Inc., WA, USA), respectively according to manufacturer's protocol at the McMaster Genomics Facility. Technical and biological normalization against global geometric mean was performed in nSolver 4.0 software (NanoString Technologies). Technical normalization was performed in the nSolver software (version 4.0.70) by normalizing sample target raw counts to the geometric mean of positive control spike-ins. Biological normalization was performed by normalizing sample target raw counts to the geometric mean of selected housekeeping genes (Ppia, Nubp1, Nol7, Armh3, Rplp0, Cnot10, Pgk1, and Acad9). Pathway scores were calculated as the first principal component of the normalized expression values for all genes in each pathway and samples were compiled according to experimental groups to determine average pathway scores. Statistical significance was calculated between experimental groups using multiple t-tests and p-values were corrected for multiple comparisons using Benjamin-Hochberg false discovery rate.
Molecular analysis. To identify the pathways modulated in the liver and tumor tissue, nanostring analysis of fibrosis and cancer, pathways, respectively were completed in an n=8 mice treated with vehicle or Compound I-32 or Compound I-1 at 100 mg/kg.

## CC(C)(CCCCc1cccc(CCCCC(C)(C)C(=O)O)c1)C(=O)O [Compound I-32, 6-[3-(5-carboxy-5-methylhexyl)-phenyl]-2,2-dimethylhexanoic acid]
100 mg/kg, 4 weeks
  number of genes downregulated: 159
  number of genes upregulated: 71
  number of genes with altered expression relative to vehicle controls (770 genes measured): 231
NM_007409, 100 mg/kg, vs vehicle
  Adh1 Log2FC: 0.536
NM_007437, 100 mg/kg, vs vehicle
  Aldh3a2 Log2FC: 0.869
NM_007453, 100 mg/kg, vs vehicle
  Prdx6 Log2FC: −0.595
NM_007468, 100 mg/kg, vs vehicle
  Apoa4 Log2FC: −3.4
NM_007510, 100 mg/kg, vs vehicle
  Atp6v1e1 Log2FC: 0.153
NM_007611, 100 mg/kg, vs vehicle
  Casp7 Log2FC: −0.31
NM_007643, 100 mg/kg, vs vehicle
  Cd36 Log2FC: 1.02
NM_007664, 100 mg/kg, vs vehicle
  Cdh2 Log2FC: −0.165
NM_007678, 100 mg/kg, vs vehicle
  Cebpa Log2FC: −0.413
NM_007686, 100 mg/kg, vs vehicle
  Cfi Log2FC: −0.395
NM_007695, 100 mg/kg, vs vehicle
  Chil1 Log2FC: 2.58
NM_007743, 100 mg/kg, vs vehicle
  Col1a2 Log2FC: −0.588
NM_007748, 100 mg/kg, vs vehicle
  Cox6a1 Log2FC: 0.336
NM_007749, 100 mg/kg, vs vehicle
  Cox7c Log2FC: 0.459
NM_007768, 100 mg/kg, vs vehicle
  Crp Log2FC: −0.857
NM_007798, 100 mg/kg, vs vehicle
  Ctsb Log2FC: −0.216
NM_007807, 100 mg/kg, vs vehicle
  Cybb Log2FC: −0.644
NM_007815, 100 mg/kg, vs vehicle
  Cyp2c29 Log2FC: −0.646
NM_007824, 100 mg/kg, vs vehicle
  Cyp7a1 Log2FC: −1.38
NM_007858, 100 mg/kg, vs vehicle
  Diaph1 Log2FC: −0.265
NM_007940, 100 mg/kg, vs vehicle
  Ephx2 Log2FC: 0.562
NM_007976, 100 mg/kg, vs vehicle
  F5 Log2FC: −0.29
NM_007987, 100 mg/kg, vs vehicle
  Fas Log2FC: 0.226
NM_007988, 100 mg/kg, vs vehicle
  Fasn Log2FC: 1.09
NM_008063, 100 mg/kg, vs vehicle
  Slc37a4 Log2FC: −0.843
NM_008086, 100 mg/kg, vs vehicle
  Gas1 Log2FC: −0.696
NM_008150, 100 mg/kg, vs vehicle
  Gpc4 Log2FC: −0.381
NM_008212, 100 mg/kg, vs vehicle
  Hadh Log2FC: 0.258
NM_008288, 100 mg/kg, vs vehicle
  Hsd11b1 Log2FC: −1.23
NM_008292, 100 mg/kg, vs vehicle
  Hsd17b4 Log2FC: 0.446
NM_008320, 100 mg/kg, vs vehicle
  Irf8 Log2FC: −0.357
NM_008348, 100 mg/kg, vs vehicle
  Il10ra Log2FC: −0.578
NM_008395, 100 mg/kg, vs vehicle
  Itch Log2FC: −0.295
NM_008455, 100 mg/kg, vs vehicle
  Kikb1 Log2FC: −0.217
NM_008509, 100 mg/kg, vs vehicle
  Lpl Log2FC: 1.8
NM_008512, 100 mg/kg, vs vehicle
  Lrp1 Log2FC: −0.376
NM_008533, 100 mg/kg, vs vehicle
  Cd180 Log2FC: −0.606
NM_008555, 100 mg/kg, vs vehicle
  Masp1 Log2FC: −0.26
NM_008569, 100 mg/kg, vs vehicle
  Anapc1 Log2FC: −0.316
NM_008605, 100 mg/kg, vs vehicle
  Mmp12 Log2FC: −2.05
NM_008608, 100 mg/kg, vs vehicle
  Mmp14 Log2FC: −0.465
NM_008683, 100 mg/kg, vs vehicle
  Nedd8 Log2FC: 0.0875
NM_008797, 100 mg/kg, vs vehicle
  Pcx Log2FC: −0.521
NM_008874, 100 mg/kg, vs vehicle
  Plcb3 Log2FC: −0.297
NM_008877, 100 mg/kg, vs vehicle
  Plg Log2FC: −0.296
NM_008910, 100 mg/kg, vs vehicle
  Ppm1a Log2FC: 0.136
NM_008927, 100 mg/kg, vs vehicle
  Map2k1 Log2FC: −0.177
NM_009117, 100 mg/kg, vs vehicle
  Saa1/2 Log2FC: −1.96
NM_009127, 100 mg/kg, vs vehicle
  Scd1 Log2FC: 0.602
NM_009128, 100 mg/kg, vs vehicle
  Scd2 Log2FC: 0.949
NM_009166, 100 mg/kg, vs vehicle
  Sorbs1 Log2FC: −0.302
NM_009169, 100 mg/kg, vs vehicle
  Sem1 Log2FC: 0.298
NM_009279, 100 mg/kg, vs vehicle
  Ssr4 Log2FC: −0.228
NM_009370, 100 mg/kg, vs vehicle
  Tgfbr1 Log2FC: −0.309
NM_009422, 100 mg/kg, vs vehicle
  Traf2 Log2FC: −0.346
NM_009425, 100 mg/kg, vs vehicle
  Tnfsf10 Log2FC: −0.692
NM_009465, 100 mg/kg, vs vehicle
  Axl Log2FC: −0.418
NM_009677, 100 mg/kg, vs vehicle
  Ap1g1 Log2FC: −0.189
NM_009692, 100 mg/kg, vs vehicle
  Apoa1 Log2FC: −0.481
NM_009693, 100 mg/kg, vs vehicle
  Apob Log2FC: −0.227
NM_009743, 100 mg/kg, vs vehicle
  Bcl2l1 Log2FC: −0.248
NM_009776, 100 mg/kg, vs vehicle
  Serping1 Log2FC: −0.66
NM_009779, 100 mg/kg, vs vehicle
  C3ar1 Log2FC: −0.825
NM_009790, 100 mg/kg, vs vehicle
  Calm1 Log2FC: −0.327
NM_009810, 100 mg/kg, vs vehicle
  Casp3 Log2FC: −0.237
NM_009825, 100 mg/kg, vs vehicle
  Serpinh1 Log2FC: −0.531
NM_009870, 100 mg/kg, vs vehicle
  Cdk4 Log2FC: 0.181
NM_009888, 100 mg/kg, vs vehicle
  Cfh Log2FC: −1.41
NM_009930, 100 mg/kg, vs vehicle
  Col3a1 Log2FC: −0.679
NM_009975, 100 mg/kg, vs vehicle
  Csnk2b Log2FC: 0.0913
NM_009983, 100 mg/kg, vs vehicle
  Ctsd Log2FC: 0.331
NM_010011, 100 mg/kg, vs vehicle
  Cyp4a10/31/32 Log2FC: 2.88
NM_010185, 100 mg/kg, vs vehicle
  Fcer1g Log2FC: −0.427
NM_010233, 100 mg/kg, vs vehicle
  Fn1 Log2FC: −0.584
NM_010325, 100 mg/kg, vs vehicle
  Got2 Log2FC: 0.156
NM_010378, 100 mg/kg, vs vehicle
  H2-Aa Log2FC: −0.4
NM_010380, 100 mg/kg, vs vehicle
  H2-D1 Log2FC: −0.175
NM_010398, 100 mg/kg, vs vehicle
  H2-T23 Log2FC: −0.224
NM_010407, 100 mg/kg, vs vehicle
  Hck Log2FC: −0.667
NM_010431, 100 mg/kg, vs vehicle
  Hif1a Log2FC: 0.283
NM_010442, 100 mg/kg, vs vehicle
  Hmox1 Log2FC: −0.484
NM_010480, 100 mg/kg, vs vehicle
  Hsp90aa1 Log2FC: 0.361
NM_010493, 100 mg/kg, vs vehicle
  Icam1 Log2FC: −0.382
NM_010546, 100 mg/kg, vs vehicle
  Ikbkb Log2FC: −0.526
NM_010560, 100 mg/kg, vs vehicle
  II6st Log2FC: −0.296
NM_010562, 100 mg/kg, vs vehicle
  Ilk Log2FC: −0.109
NM_010578, 100 mg/kg, vs vehicle
  Itgb1 Log2FC: 0.143
NM_010634, 100 mg/kg, vs vehicle
  Fabp5 Log2FC: 1.44
NM_010704, 100 mg/kg, vs vehicle
  Lepr Log2FC: 0.604
NM_010724, 100 mg/kg, vs vehicle
  Psmb8 Log2FC: −0.801
NM_010747, 100 mg/kg, vs vehicle
  Lyn Log2FC: −0.295
NM_010766, 100 mg/kg, vs vehicle
  Marco Log2FC: −1.54
NM_011032, 100 mg/kg, vs vehicle
  P4hb Log2FC: −0.765
NM_011044, 100 mg/kg, vs vehicle
  Pck1 Log2FC: −1.99
NM_011125, 100 mg/kg, vs vehicle
  Pitp Log2FC: 1.37
NM_011146, 100 mg/kg, vs vehicle
  Pparg Log2FC: −0.592
NM_011159, 100 mg/kg, vs vehicle
  Prkdc Log2FC: −0.525
NM_011173, 100 mg/kg, vs vehicle
  Pros1 Log2FC: −0.208
NM_011175, 100 mg/kg, vs vehicle
  Lgmn Log2FC: −0.601
NM_011210, 100 mg/kg, vs vehicle
  Ptprc Log2FC: −0.47
NM_011311, 100 mg/kg, vs vehicle
  S100a4 Log2FC: −0.79
NM_011340, 100 mg/kg, vs vehicle
  Serpinf1 Log2FC: −0.208
NM_011434, 100 mg/kg, vs vehicle
  Sod1 Log2FC: 0.284
NM_011480, 100 mg/kg, vs vehicle
  Srebf1 Log2FC: −0.634
NM_011581, 100 mg/kg, vs vehicle
  Thbs2 Log2FC: −1.01
NM_011594, 100 mg/kg, vs vehicle
  Timp2 Log2FC: −0.451
NM_011597, 100 mg/kg, vs vehicle
  Tjp2 Log2FC: 0.199
NM_011602, 100 mg/kg, vs vehicle
  Tln1 Log2FC: −0.355
NM_011697, 100 mg/kg, vs vehicle
  Vegfb Log2FC: 0.521
NM_011996, 100 mg/kg, vs vehicle
  Adh4 Log2FC: −0.855
NM_012060, 100 mg/kg, vs vehicle
  Bcap31 Log2FC: −0.145
NM_013485, 100 mg/kg, vs vehicle
  C9 Log2FC: −1.25

Source: patent US11730712B2, “Functionalized long-chain hydrocarbon mono- and di-carboxylic acids and derivatives thereof, and their use for the prevention or treatment of disease” (ESPERVITA THERAPEUTICS, INC., priority 2021, dated 2023)
